Legend:
Format in all cases: cell-based
[1] = test system: A375 melanoma cell line; assay: SRB analysis 3; details: 48 hours
Experimental: (§1) Through SRB analysis (n=3), the effect of triple combination treatment of a CAC inhibitor (KN510: omeprazole), ACAA inhibitor (KN713: trimetazidine) and other anticancer drug on cell growth in the cancer cells was analyzed. (see Table 11).
(§2) The SRB assay was performed as follows: each cell line (100 μl) was seeded into 96-well microtiter plates at densities ranging from 5,000 to 40,000 cells/well depending on the doubling time of each cell line. After 24 hours, drug (100 μl per well) was added to each well and the culture was incubated at 37° C. for 48 hours. Cells were then fixed in 50% TCA (50 μl per well) and plates were incubated at 4° C. for a minimum of 1 hour or a maximum of 3 hours. After that, the liquid was removed from the plate, then rinsed 5 times with water and dried for approximately 12-24 hours at room temperature (RT). After the fixed cells were stained with 0.4% SRB (100 μl per well) for 10 minutes at room temperature, the plates were washed 3 times with 1% glacial acetic acid and dried at room temperature for about 12-24 hours. SRB staining was dissolved in 10 mM Trizma base and absorbance was read at 515 nm. The effect of the drug was expressed as GI50 (50% growth inhibition), TGI (total growth inhibition) or LC50 (lethal concentration). GI50 is the maximum concentration at the moment of 50% inhibition of cell proliferation and IC50 is the concentration of the drug that inhibits the enzyme activity in vitro by 50% in this study.

[2] = test system: A549 non-small cell lung cancer (NSCLC) cell line; assay: SRB analysis 3; details: 48 hours
Experimental: as §1, §2

[3] = test system: ACHN renal cancer cell line; assay: SRB analysis 3; details: 48 hours
Experimental: as §1, §2

[4] = test system: AGS gastric cancer cell line; assay: SRB analysis 3; details: 48 hours
Experimental: as §1, §2

[5] = test system: AsPC-1 pancreatic cancer (PDAC) cell line; assay: SRB analysis 3; details: 48 hours
Experimental: as §1, §2

[6] = test system: COLO-205 colon cancer cell line; assay: SRB analysis 3; details: 48 hours
Experimental: as §1, §2

[7] = test system: Caki-1 renal cancer cell line; assay: SRB analysis 3; details: 48 hours
Experimental: as §1, §2

[8] = test system: DU145 prostate cancer cell line; assay: SRB analysis 3; details: 48 hours
Experimental: as §1, §2

[9] = test system: H1975 non-small cell lung cancer (NSCLC) cell line; assay: SRB analysis 3; details: 48 hours
Experimental: as §1, §2

[10] = test system: HCT-116 colon cancer cell line; assay: SRB analysis 3; details: 48 hours
Experimental: as §1, §2

[11] = test system: Huh-7 liver cancer cell line; assay: SRB analysis 3; details: 48 hours
Experimental: as §1, §2

[12] = test system: MCF7 breast cancer cell line; assay: SRB analysis 3; details: 48 hours
Experimental: as §1, §2

[13] = test system: MDA-MB-231 breast cancer cell line; assay: SRB analysis 3; details: 48 hours
Experimental: as §1, §2

[14] = test system: MIA PaCa-2 pancreatic cancer (PDAC) cell line; assay: SRB analysis 3; details: 48 hours
Experimental: as §1, §2

[15] = test system: MKN45 gastric cancer cell line; assay: SRB analysis 3; details: 48 hours
Experimental: as §1, §2

[16] = test system: OVCAR-8 ovarian cancer cell line; assay: SRB analysis 3; details: 48 hours
Experimental: as §1, §2

[17] = test system: PC-3 prostate cancer cell line; assay: SRB analysis 3; details: 48 hours
Experimental: as §1, §2

[18] = test system: SK-OV-3 ovarian cancer cell line; assay: SRB analysis 3; details: 48 hours
Experimental: as §1, §2

[19] = test system: SK-hep-1 liver cancer cell line; assay: SRB analysis 3; details: 48 hours
Experimental: as §1, §2

[20] = test system: UACC62 melanoma cell line; assay: SRB analysis 3; details: 48 hours
Experimental: as §1, §2

[21] = test system: T87G glioblastoma (GBM) cell line; assay: SRB analysis 3; details: 48 hours
Experimental: as §2, with “Through SRB analysis (n=3), the effect of triple combination treatment of a CAC inhibitor ([…] inhibitor (KN713: trimetazidine) and other anticancer drug on cell growth in the cancer cells was analyzed. (see Table 11). The” for “The”, “nm.” for “nm. The effect of the drug was expressed as GI50 (50% growth inhibition), TGI (total growth inhibition) or LC50 (lethal concentration). GI50 is the maximum concentration at the moment of 50% inhibition of cell proliferation and IC50 is the concentration of the drug that inhibits the enzyme activity in vitro by 50% in this study.”

[22] = test system: U87MG glioblastoma (GBM) cell line; assay: SRB analysis 3; details: 48 hours
Experimental: as §2, with “Through SRB analysis (n=3), the effect of triple combination treatment of a CAC inhibitor ([…] inhibitor (KN713: trimetazidine) and other anticancer drug on cell growth in the cancer cells was analyzed. (see Table 11). The” for “The”, “nm.” for “nm. The effect of the drug was expressed as GI50 (50% growth inhibition), TGI (total growth inhibition) or LC50 (lethal concentration). GI50 is the maximum concentration at the moment of 50% inhibition of cell proliferation and IC50 is the concentration of the drug that inhibits the enzyme activity in vitro by 50% in this study.”

[23] = test system: cancer cells; assay: SRB analysis 3, triple combination, summary over cancer panels
Experimental: as §1, §2

[24] = Breast Cancer, BT-549, MDA MB 231
[25] = Ovarian Cancer, SK-OV-3, OVCAR-3
[26] = Renal cell carcinoma, ACHN, CAKI-1

CCc1c2c(nc3ccc(OC(=O)N4CCC(N5CCCCC5)CC4)cc13)-c1cc3c(c(=O)n1C2)COC(=O)[C@]3(O)CC [Irinotecan]
cell growth (Control = 100) ([1]; Irinotecan 2.5 μM): −23.32 | cell growth (Control = 100) ([2]; Irinotecan 2.5 μM): 17.6 | cell growth (Control = 100) ([3]; Irinotecan 2.5 μM): −43.8973 | cell growth (Control = 100) ([4]; Irinotecan 2.5 μM): 13.58 | cell growth (Control = 100) ([5]; Irinotecan 2.5 μM): 45.75 | cell growth (Control = 100) ([6]; Irinotecan 2.5 μM): 10.02 | cell growth (Control = 100) ([7]; Irinotecan 2.5 μM): 22.65 | cell growth (Control = 100) ([8]; Irinotecan 5 μM): 28.6 | cell growth (Control = 100) ([9]; Irinotecan 2.5 μM): 25.71 | cell growth (Control = 100) ([10]; Irinotecan 2.5 μM): −0.3443 | cell growth (Control = 100) ([11]; Irinotecan 2.5 μM): 15.47 | cell growth (Control = 100) ([12]; Irinotecan 2.5 μM): 7.427 | cell growth (Control = 100) ([13]; Irinotecan 2.5 μM): 78.25 | cell growth (Control = 100) ([14]; Irinotecan 2.5 μM): 2.59 | cell growth (Control = 100) ([15]; MKN45, Irinotecan 2.5 μM): 40.94 | cell growth (Control = 100) ([16]; Irinotecan 2.5 μM): 36.34 | cell growth (Control = 100) ([17]; Irinotecan 5 μM): 37.7 | cell growth (Control = 100) ([18]; Irinotecan 2.5 μM): 13.57 | cell growth (Control = 100) ([19]; Irinotecan 2.5 μM): −15.5188 | cell growth (Control = 100) ([20]; Irinotecan 2.5 μM): −13.35 | cell growth (Control = 100) ([21]; Irinotecan 2.5 μM): 71.53 | cell growth (Control = 100) ([22]; Irinotecan 2.5 μM): 6.31 | Positive/Negative (triple combination of KN510, KN713 and the listed anticancer drug) [23, 24]: Positive | Positive/Negative (triple combination of KN510, KN713 and the listed anticancer drug) ([23]; Colon Cancer, HT-29, COLO-205): negative | Positive/Negative (triple combination of KN510, KN713 and the listed anticancer drug) ([23]; GBM, U87MG, T87G): Positive | Positive/Negative (triple combination of KN510, KN713 and the listed anticancer drug) ([23]; Liver Cancer, SNU-449, Huh-7): negative | Positive/Negative (triple combination of KN510, KN713 and the listed anticancer drug) ([23]; NSCLC, A549, H522): Positive | Positive/Negative (triple combination of KN510, KN713 and the listed anticancer drug) [23, 25]: negative | Positive/Negative (triple combination of KN510, KN713 and the listed anticancer drug) ([23]; PDAC, MIA PaCa-2, PANC-1): Positive | Positive/Negative (triple combination of KN510, KN713 and the listed anticancer drug) ([23]; Prostate Cancer, PC-3, DU-145): Positive | Positive/Negative (triple combination of KN510, KN713 and the listed anticancer drug) [23, 26]: negative | Positive/Negative (triple combination of KN510, KN713 and the listed anticancer drug) ([23]; Stomach Cancer, MKN-28, AGS): Positive | Positive/Negative (triple combination of KN510, KN713 and the listed anticancer drug) ([23]; melanoma, UACC62, A375): Positive

CC(=O)O[C@H]1C(=O)[C@@]2(C)[C@H]([C@H](OC(=O)c3ccccc3)[C@]3(O)C[C@H](OC(=O)[C@H](O)[C@@H](NC(=O)c4ccccc4)c4ccccc4)C(C)=C1C3(C)C)[C@]1(OC(C)=O)CO[C@@H]1C[C@@H]2O [Paclitaxel]
cell growth (Control = 100) ([1]; Paclitaxel 10 nM): 40.20 | cell growth (Control = 100) ([2]; Paclitaxel 10 nM): 17.6 | cell growth (Control = 100) ([3]; Paclitaxel 10 nM): 105.2409 | cell growth (Control = 100) ([4]; Paclitaxel 20 nM): 20.3903 | cell growth (Control = 100) ([5]; Paclitaxel 10 nM): 41.94 | cell growth (Control = 100) ([6]; Paclitaxel 10 nM): −8.628 | cell growth (Control = 100) ([7]; Paclitaxel 10 nM): 128.124 | cell growth (Control = 100) ([8]; Paclitaxel 10 nM): 46.381 | cell growth (Control = 100) ([9]; Paclitaxel 10 nM): 45.06 | cell growth (Control = 100) ([10]; Paclitaxel 10 nM): 15.07 | cell growth (Control = 100) ([11]; Paclitaxel 10 μM): 63.01 | cell growth (Control = 100) ([12]; Paclitaxel 10 μM): 17.28 | cell growth (Control = 100) ([13]; Paclitaxel 10 μM): 70.48 | cell growth (Control = 100) ([14]; Paclitaxel 10 nM): 16.4 | cell growth (Control = 100) ([15]; MKN-45, Paclitaxel 20 nM): 8.846 | cell growth (Control = 100) ([16]; Paclitaxel 10 μM): 76.61 | cell growth (Control = 100) ([17]; Paclitaxel 10 nM): 47.85 | cell growth (Control = 100) ([18]; Paclitaxel 10 μM): 62.41 | cell growth (Control = 100) ([19]; Paclitaxel 10 μM): 78.76 | cell growth (Control = 100) ([20]; Paclitaxel 10 nM): 65.90 | cell growth (Control = 100) ([21]; Paclitaxel 10 nM): 56.70 | cell growth (Control = 100) ([22]; Paclitaxel 10 nM): 28.87 | Positive/Negative (triple combination of KN510, KN713 and the listed anticancer drug) [23, 24]: Positive | Positive/Negative (triple combination of KN510, KN713 and the listed anticancer drug) ([23]; Colon Cancer, HT-29, COLO-205): Positive | Positive/Negative (triple combination of KN510, KN713 and the listed anticancer drug) ([23]; GBM, U87MG, T87G): Positive | Positive/Negative (triple combination of KN510, KN713 and the listed anticancer drug) ([23]; Liver Cancer, SNU-449, Huh-7): Positive | Positive/Negative (triple combination of KN510, KN713 and the listed anticancer drug) ([23]; NSCLC, A549, H522): Positive | Positive/Negative (triple combination of KN510, KN713 and the listed anticancer drug) [23, 25]: Positive | Positive/Negative (triple combination of KN510, KN713 and the listed anticancer drug) ([23]; PDAC, MIA PaCa-2, PANC-1): Positive | Positive/Negative (triple combination of KN510, KN713 and the listed anticancer drug) ([23]; Prostate Cancer, PC-3, DU-145): Positive | Positive/Negative (triple combination of KN510, KN713 and the listed anticancer drug) [23, 26]: negative | Positive/Negative (triple combination of KN510, KN713 and the listed anticancer drug) ([23]; Stomach Cancer, MKN-28, AGS): Positive | Positive/Negative (triple combination of KN510, KN713 and the listed anticancer drug) ([23]; melanoma, UACC62, A375): Positive

From patent US12728119B2, “Pharmaceutical composition for preventing or treating cancer comprising 3-ketoacyl CoA thiolase inhibitor and carnitine acylcarnitine carrier inhibitor” (NATIONAL CANCER CENTER, priority 2020, dated 2026)
